Reference: US20240279236A1, “COMPOUNDS AND METHODS OF TREATING TUBERCULOSIS” (Fimbrion Therapeutics, Inc., priority 2021, published 2024)

tested on: WT Mtb Erdman strain; experiment: Microplate Alamar Blue Assay (MABA), Mtb growth inhibition; assay type: cell-based, Mycobacterium tuberculosis; conditions: Middlebrook 7H9 media, 7 days at 37° C. in 5% CO2

Compound | IC50
Cc1cc2c(NCCCc3ccc(-c4ccc(OC(F)(F)F)cc4)cc3)nc(N(C)C)nc2s1 [Example 535, N2,N2,6-trimethyl-N4-(3-(4′-(trifluoromethoxy)-[1,1′-biphenyl]-4-yl)propyl)thieno[2,3-d]pyrimidine-2,4-diamine] | 4 nM

same assay, conditions: Mycobacterium tuberculosis, ERDMAN, 168 h, Middlebrook 7H9 media, 7 days at 37° C. in 5% CO2

Compound | IC50
Cc1cc2c(NCCCc3ccc(-c4ccc(OC(F)(F)F)cc4)cc3)nc(N3CCC(F)(F)C3)nc2s1 [Example 534, 2-(3,3-difluoropyrrolidin-1-yl)-6-methyl-N-(3-(4′-(trifluoromethoxy)-[1,1′-biphenyl]-4-yl)propyl)thieno[2,3-d]pyrimidin-4-amine] | 86 nM
CN(C)c1nc(NCCCc2ccc(-c3ccc(OC(F)(F)F)cc3)cc2)c2ncsc2n1 [Example 536, N5,N5-dimethyl-N7-(3-(4′-(trifluoromethoxy)-[1,1′-biphenyl]-4-yl)propyl)thiazolo[5,4-d]pyrimidine-5,7-diamine] | 88 nM
Cc1cc2c(NCCCc3ccc(-c4ccc(OC(F)(F)F)cc4)cc3)nc(N)nc2s1 [Example 537, 6-methyl-N4-(3-(4′-(trifluoromethoxy)-[1,1′-biphenyl]-4-yl)propyl)thieno[2,3-d]pyrimidine-2,4-diamine] | 130 nM
CCN(C)c1nc(NCCCc2ccc(-c3ccc(OC(F)(F)F)cc3)cc2)c2cc(C)sc2n1 [Example 538, N2-ethyl-N2,6-dimethyl-N4-(3-(4′-(trifluoromethoxy)-[1,1′-biphenyl]-4-yl)propyl)thieno[2,3-d]pyrimidine-2,4-diamine] | 100 nM
CNc1nc(NCCCc2ccc(-c3ccc(N(C)C)cc3)cc2)c2cc(C)sc2n1 [Example 539, N4-(3-(4′-(dimethylamino)-[1,1′-biphenyl]-4-yl)propyl)-N2,6-dimethylthieno[2,3-d]pyrimidine-2,4-diamine] | 68 nM
CCOc1nc(NCCCc2ccccc2)c2ccsc2n1 [Example 542, 2-ethoxy-N-(3-phenylpropyl)thieno[2,3-d]pyrimidin-4-amine] | 150 nM
CCOc1nc(NCCCc2ccccc2)c2cc(C)sc2n1 [Example 543, 2-ethoxy-6-methyl-N-(3-phenylpropyl)thieno[2,3-d]pyrimidin-4-amine] | 130 nM
COc1nc(NCCCc2ccc(-c3ccc(OC(F)(F)F)cc3)cc2)c2cc(C)sc2n1 [Example 545, 2-methoxy-6-methyl-N-(3-(4′-(trifluoromethoxy)-[1,1′-biphenyl]-4-yl)propyl)thieno[2,3-d]pyrimidin-4-amine] | 10 nM
CCOc1nc(NCCCc2ccc(-c3ccc(OC(F)(F)F)cc3)cc2)c2cc(C)sc2n1 [Example 546, 2-ethoxy-6-methyl-N-(3-(4′-(trifluoromethoxy)-[1,1′-biphenyl]-4-yl)propyl)thieno[2,3-d]pyrimidin-4-amine] | 15 nM
COc1nc(NCCCc2ccc(-c3ccc(OC(F)(F)F)cc3)cc2)c2nc(C)sc2n1 [Example 547, 5-methoxy-2-methyl-N-(3-[4′-(trifluoromethoxy)-[1,1′-biphenyl]-4-yl]propyl)-[1,3]thiazolo[5,4-d]pyrimidin-7-amine] | 33 nM
Cc1cc2c(NCCCc3ccc(-c4ccc([N+](=O)[O-])cc4)cc3)nc(N3CCCC3)nc2s1 [Example 549, 6-methyl-N-(3-(4′-nitro-[1,1′-biphenyl]-4-yl)propyl)-2-(pyrrolidin-1-yl)thieno[2,3-d]pyrimidin-4-amine] | 29 nM
Cc1cc2c(NCCCc3ccc(-c4ccc(F)nc4)cc3)nc(N(C)C)nc2s1 [Example 555, N4-(3-[4-(6-fluoropyridin-3-yl)phenyl]propyl)-N2,N2,6-trimethylthieno[2,3-d]pyrimidine-2,4-diamine] | 29 nM
Cc1cc2c(NCCCc3ccc(-c4ccc(F)cc4)cc3)nc(N(C)C)nc2s1 [Example 556, N4-(3-(4′-fluoro-[1,1′-biphenyl]-4-yl)propyl)-N2,N2,6-trimethylthieno[2,3-d]pyrimidine-2,4-diamine] | < 4 nM
Cc1cc2c(NCCCc3ccc(-c4ccc(C(F)(F)F)cn4)cc3)nc(N(C)C)nc2s1 [Example 557, N2,N2,6-trimethyl-N4-(3-(4-[5-(trifluoromethyl)pyridin-2-yl]phenyl)propyl)thieno[2,3-d]pyrimidine-2,4-diamine] | < 4 nM
Cc1cc2c(NCCCc3ccc(-c4ncc(C(F)(F)F)cn4)cc3)nc(N(C)C)nc2s1 [Example 558, N2,N2,6-trimethyl-N4-(3-(4-[5-(trifluoromethyl)pyrimidin-2-yl]phenyl)propyl)thieno[2,3-d]pyrimidine-2,4-diamine] | < 4 nM
Cc1cnc(-c2ccc(CCCNc3nc(N(C)C)nc4sc(C)cc34)cc2)cn1 [Example 559, N2,N2,6-trimethyl-N4-(3-[4-(5-methylpyrazin-2-yl)phenyl]propyl)thieno[2,3-d]pyrimidine-2,4-diamine] | 11 nM
CCOc1nc(NCCCc2ccc(-c3cnc(C(F)(F)F)cn3)cc2)c2cc(C)sc2n1 [Example 560, 2-ethoxy-6-methyl-N-(3-(4-[5-(trifluoromethyl)pyrazin-2-yl]phenyl)propyl)thieno[2,3-d]pyrimidin-4-amine] | 50 nM
COc1nc(NCCCc2ccc(-c3cnc(F)cn3)cc2)c2cc(C)sc2n1 [Example 561, N-(3-[4-(5-fluoropyrazin-2-yl)phenyl]propyl)-2-methoxy-6-methylthieno[2,3-d]pyrimidin-4-amine] | 31 nM
CCc1nc(NCCCc2c[nH]nn2)c2cc(C)sc2n1 [Example 562, N-(3-(1H-1,2,3-triazol-4-yl)propyl)-2-ethyl-6-methylthieno[2,3-d]pyrimidin-4-amine] | > 10000 nM

Compound | IC50
CCc1nc(NCCCc2cn(-c3ccccc3)nn2)c2cc(C)sc2n1 [Example 563, 2-ethyl-6-methyl-N-(3-(1-phenyl-1H-1,2,3-triazol-4-yl)propyl)thieno[2,3-d]pyrimidin-4-amine] | 4700 nM
CNC(=O)c1nc(NCCCc2ccc(OC(F)(F)F)cc2)c2cc(C)sc2n1 [Example 564, N,6-dimethyl-4-((3-(4-(trifluoromethoxy)phenyl)propyl)amino)thieno[2,3-d]pyrimidine-2-carboxamide] | 1200 nM
Cc1cc2c(NCCCc3ccc(OC(F)(F)F)cc3)nc(C(=O)NC3CC3)nc2s1 [Example 565, N-cyclopropyl-6-methyl-4-((3-(4-(trifluoromethoxy)phenyl)propyl)amino)thieno[2,3-d]pyrimidine-2-carboxamide] | 4300 nM
Cc1cc2c(N[C@H]3C[C@@H]3c3ccc(F)c(F)c3)nc(-c3ccc[nH]3)nc2s1 [Example 566, N-((1S,2R)-2-(3,4-difluorophenyl)cyclopropyl)-6-methyl-2-(1H-pyrrol-2-yl)thieno[2,3-d]pyrimidin-4-amine] | 1600 nM
Cc1cc2c(NCCCc3ccc(-c4ccc(OC(F)(F)F)cc4)cc3)nc(-c3ccc[nH]3)nc2s1 [Example 567, 6-methyl-2-(1H-pyrrol-2-yl)-N-(3-(4′-(trifluoromethoxy)-[1,1′-biphenyl]-4-yl)propyl)thieno[2,3-d]pyrimidin-4-amine] | < 4 nM
Cc1cc2c(NCCCc3ccc(-c4ccc(OC(F)(F)F)cc4)cc3)nc(-c3cc[nH]c3)nc2s1 [Example 568, 6-methyl-2-(1H-pyrrol-3-yl)-N-(3-(4′-(trifluoromethoxy)-[1,1′-biphenyl]-4-yl)propyl)thieno[2,3-d]pyrimidin-4-amine] | > 1000 nM
Cc1cc2c(NCCCc3ccc(-c4ccc([N+](=O)[O-])cc4)cc3)nc(-c3cc[nH]c3)nc2s1 [Example 569, 6-methyl-N-(3-(4′-nitro-[1,1′-biphenyl]-4-yl)propyl)-2-(1H-pyrrol-3-yl)thieno[2,3-d]pyrimidin-4-amine] | 70 nM
Cc1cc2c(NCCCc3ccc(-c4ccc(C(F)(F)F)cn4)cc3)nc(-c3cc[nH]c3)nc2s1 [Example 570, 6-methyl-2-(1H-pyrrol-3-yl)-N-(3-(4-(5-(trifluoromethyl)pyridin-2-yl)phenyl)propyl)thieno[2,3-d]pyrimidin-4-amine] | 230 nM
FC(F)(F)Oc1ccc(-c2ccc(CCCNc3nc(-c4ccc[nH]4)nc4sccc34)cc2)cc1 [Example 574, 2-(1H-pyrrol-2-yl)-N-(3-(4′-(trifluoromethoxy)-[1,1′-biphenyl]-4-yl)propyl)thieno[2,3-d]pyrimidin-4-amine] | > 520 nM
Cc1cc2c(NCCCc3ccc(-c4cnc(N5CCCC5)cn4)cc3)nc(N3CCCC3)nc2s1 [Example 575, 6-methyl-2-(pyrrolidin-1-yl)-N-(3-(4-(5-(pyrrolidin-1-yl)pyrazin-2-yl)phenyl)propyl)thieno[2,3-d]pyrimidin-4-amine] | 91 nM
CCc1nc(NC(=O)CCCc2ccccc2)c2cc(C)sc2n1 [Example 576, N-(2-ethyl-6-methylthieno[2,3-d]pyrimidin-4-yl)-4-phenylbutanamide] | 3400 nM
Cc1cc2c(NC(=O)CCc3ccccc3)nc(-c3ccoc3)nc2s1 [Example 577, N-(2-(furan-3-yl)-6-methylthieno[2,3-d]pyrimidin-4-yl)-3-phenylpropanamide] | 71 nM
Cc1cc2c(NCCCc3ccccc3)nc(S(C)(=O)=O)nc2s1 [Example 578, 6-methyl-2-(methylsulfonyl)-N-(3-phenylpropyl)thieno[2,3-d]pyrimidin-4-amine] | 4000 nM
Cc1cc2c(NCCCc3ccccc3)nc(C(=O)O)nc2s1 [Example 579, 6-methyl-4-((3-phenylpropyl)amino)thieno[2,3-d]pyrimidine-2-carboxylic acid] | > 10000 nM
Cc1cc2c(NCCCc3ccccc3)nc(OC(F)F)nc2s1 [Example 580, 2-(difluoromethoxy)-6-methyl-N-(3-phenylpropyl)thieno[2,3-d]pyrimidin-4-amine] | > 10000 nM
Cc1cc2c(NCCCc3ccccc3)nc([S+](C)[O-])nc2s1 (centres unmarked) [Example 581, 6-methyl-2-(methylsulfinyl)-N-(3-phenylpropyl)thieno[2,3-d]pyrimidin-4-amine] | 1300 nM
C=C(C)c1nc(NCCCc2ccccc2)c2cc(C)sc2n1 [Example 582, 6-methyl-N-(3-phenylpropyl)-2-(prop-1-en-2-yl)thieno[2,3-d]pyrimidin-4-amine] | 170 nM
Cc1nc(NCCCc2ccccc2)c2nc(Cl)sc2n1 [Example 583, 2-chloro-5-methyl-N-(3-phenylpropyl)thiazolo[5,4-d]pyrimidin-7-amine] | 5800 nM
